System: naïve Tau
Test: In vitro second generation seeding without heparin, ThT assay
Conditions: equimolar effective concentration of heparin as contained in the catalytic amount of 2b seed
Experimental: Seeds were generated following the procedure described above at 50 μM protein concentration. The sample was vigorously pipetted to evenly disperse fibrils, and was added at a 2.5 mol % (1.25 μM protein concentration) to a 50 μM sample of new protein. Aggregation was followed with ThioflavinT assays. Thioflavin T (ThT) assays for Beta-sheet content were conducted with 50 μM protein content, and […] ThT in a 384-well Corning plate. A BioTek synergy2 plate reader was used with temperature control set at 37° C.

naïve Tau, sequence (as listed by the source): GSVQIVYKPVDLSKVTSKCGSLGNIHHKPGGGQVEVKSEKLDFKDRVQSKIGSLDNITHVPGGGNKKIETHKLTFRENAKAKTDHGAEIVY

heparin
ThT fluorescence, heparin-only control: no detectable ThT fluorescence

From patent US20250003989A1, “METHODS FOR TAUOPATHY DIAGNOSIS AND TREATMENT” (The Children`s Medical Center Corporation, priority 2021, published 2025)
